Earlier results in patent publication US20070184105A1, “COMSPOSITION FOR STABLIZING EPIGALLOCATECHIN GALLATE (EGCG) IN WATER PHASE AND PREPARATION METHOD THEREOF” (DPI SOLUTIONS, INC., priority 2004, published 2007).

amount of EGCG that can be dissolved in water phase: about 4%
Compound: O=C(O[C@@H]1Cc2c(O)cc(O)cc2O[C@@H]1c1cc(O)c(O)c(O)c1)c1cc(O)c(O)c(O)c1 [EGCG, epigallocatechin gallate]
